Source: patent US11738031B2, “Compositions and methods for preventing or treating muscle conditions” (The Board of Trustees of the Leland Stanford Junior …, priority 2017, dated 2023)
Like-named read-outs stand apart in the source and are kept apart here.

What was measured:
[1] = system: endogenous MuSCs in TA muscle; test: Endogenous MuSC BLI in Pax7CreERT2;Rosa26-LSL-Luc mice after cardiotoxin injury; type: in vivo, mouse; conditions: 13 nmol three days post-cardiotoxin, BLI days 3-14
Description: Bioluminescence imaging: We performed bioluminescence imaging (BLI) using a Xenogen-100 system, as previously described^1,5,6. Briefly, we anesthetized mice using isofluorane inhalation and administered 120 μL D-luciferin (0.1 mmol kg^−1, reconstituted in PBS; Caliper LifeSciences) by intraperitoneal injection. We acquired BLI using a 60 s exposure at F-stop=1.0 at 5 minutes after luciferin injection. Digital images were recorded and analyzed using Living Image software (Caliper LifeSciences). We analyzed images with a consistent region-of-interest (ROI) placed over each hindlimb to calculate a bioluminescence signal. We calculated a bioluminescence signal in radiance (p s^−1 cm^−2 sr^−1) value of 10^4 to define an engraftment threshold. This radiance threshold of 10^4 is approximately equivalent to the total flux threshold in p/s reported previously. This BLI threshold corresponds to the histological detection of one or more GFP+ myofibers^1,5,6. We performed BLI imaging every week after transplantation. […]
We performed bioluminescence imaging (BLI) using a Xenogen-100 system, as previously described (24, 26, 27, 30). […] Digital images were recorded and analyzed using Living Image software (Caliper LifeSciences). We analyzed images with a consistent region-of-interest (ROI) placed over each hindlimb to calculate a bioluminescence signal. We calculated a bioluminescence signal in radiance (p s^−1 cm^−2 sr^−1) value of 10^4 to define an engraftment threshold. […]
Bioluminescent Imaging: For bioluminescence imaging (BLI), we anesthetized mice using isofluorane inhalation and administered 120 μL D-luciferin (0.1 mmol kg^−1, reconstituted in PBS; Caliper LifeSciences) by intraperitoneal injection. […] Digital images were recorded and analyzed using Living Image software (Caliper LifeSciences). We analyzed images with a consistent region-of-interest (ROI) placed over each hindlimb to calculate a bioluminescence signal. We calculated a bioluminescence signal in radiance (p s^−1 cm^−2 sr^−1) value of 10^4 to define an engraftment threshold. […]

[2] = cited from earlier work; for half-life: in vivo

| SMILES | BLI of endogenous MuSCs after injury and PGE2/dmPGE2 [1] | half-life in vivo [2] | half-life [2] | half-life ([2]; listed as Dinoprostone) |
| --- | --- | --- | --- | --- |
| CCCCC(C)(C)[C@H](O)/C=C/[C@H]1[C@H](O)CC(=O)[C@@H]1C/C=C\CCCC(=O)O [dmPGE2, 16,16-dimethyl prostaglandin E2] | in agreement with the histological data | – | – | – |
| CCCCC[C@H](O)/C=C/[C@H]1[C@H](O)CC(=O)[C@@H]1C/C=C\CCCC(=O)O [PGE2, prostaglandin E2] | in agreement with the histological data | relatively short | 5 min | less than 5 minutes |
